{"source": "patent US9770413B2", "about": "“Amphiphilic dendron-coils, micelles thereof and uses” (THE BOARD OF TRUSTEES OF THE UNIVERSITY OF ILLINOIS, priority 2011, dated 2017)", "origin": "cited, not measured here", "biological_target": "folate receptors (FR)", "note": "pKd: −log10 of the molar value.", "data": [{"smiles": "Nc1nc2ncc(CNc3ccc(C(=O)N[C@@H](CCC(=O)O)C(=O)O)cc3)nc2c(=O)[nH]1", "note": "[FA, folic acid]", "values": [{"measurement": "pKd", "value": "~10.00"}]}]}
